Data taken from US5164414A, “Use of N-myristoyl-(S)-phenylalanine for the treatment of diseases involving myristoylation” (Adir Et Compagnie, priority 1990, dated 1992).
“Also recorded” adds a separate entry of the source.

Legend:
L 1210 cells = test: Cytotoxicity, colorimetric test (ALLEY et al.), L 1210; format: cell-based, mouse; settings: for IC50: Mus musculus, L1210, concentration inhibiting 50% of cell growth, 9 concentrations
Procedure: (§1) The cytotoxicity of the compounds is assessed using the calorimetric test described by ALLEY et al. (Cancer Res., (1988) 48, 589-601). This automated test is routinely used on 2 cell lines: L 1210 (mouse leukemia) and HL 60 (human promyelocyte). On each of these lines, the cytotoxicity is assessed using 9 concentrations of the compounds. The IC50 is the concentration inhibiting 50% of cell growth.

HL 60 cells = test: Cytotoxicity, colorimetric test (ALLEY et al.), HL 60; format: cell-based, human; settings: for IC50: Homo sapiens, HL-60, concentration inhibiting 50% of cell growth, 9 concentrations
Procedure: as §1

[1] = target: T1, N-myristoyltransferase (NMT) (Mus musculus, UniProt O70310); test: Inhibition of N-myristoyltransferase (NMT) solubilized from L 1210 microsomes, in competition with peptide substrate G8R; format: biochemical, murine (L 1210); settings: for IC50: NMT from L 1210 microsomes, peptide substrate G8R, 10 min at 37° C.
T1 construct: The supernatant comprises the whole of the NMT activity present in the L 1210 microsomes; endogenous in cells; host or cells: L 1210 murine leukemia cells; Triton 770-solubilized microsomes (105,000 g supernatant)
T1 sequence (O70310 1-496): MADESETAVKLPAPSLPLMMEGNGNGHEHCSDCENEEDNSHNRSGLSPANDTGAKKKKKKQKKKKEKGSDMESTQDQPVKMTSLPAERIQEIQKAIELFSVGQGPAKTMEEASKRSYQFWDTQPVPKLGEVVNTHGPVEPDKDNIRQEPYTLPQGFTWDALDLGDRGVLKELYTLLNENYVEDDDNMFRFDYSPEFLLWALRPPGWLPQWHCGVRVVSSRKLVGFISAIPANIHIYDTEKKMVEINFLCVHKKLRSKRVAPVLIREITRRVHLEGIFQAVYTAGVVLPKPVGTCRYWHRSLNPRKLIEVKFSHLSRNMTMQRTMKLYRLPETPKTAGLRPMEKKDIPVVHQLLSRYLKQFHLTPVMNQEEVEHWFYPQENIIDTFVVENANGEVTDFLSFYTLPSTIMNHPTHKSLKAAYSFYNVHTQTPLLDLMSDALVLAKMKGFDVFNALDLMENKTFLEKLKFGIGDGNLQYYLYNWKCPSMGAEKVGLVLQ
Procedure: Leukemic cells of murine origin (L 1210) are cultured in 500- to 1000-ml roller bottles in a medium comprising: RPMI 1640 medium (Gibco); 10% fetal calf serum; 50 units/ml of penicillin; 50 μM streptomycin; 2 mM glutamine; and 10 mM HEPES (Gibco). The cells grow with continuous agitation at 37° C. in an atmosphere of 5% CO2 /95% air. The cells are collected and washed. The final pellet, typically containing 2.5×10^11 cells is resuspended in a lysis buffer [50 mM Tris, pH 7.9; 1 mM DTT; 1 mM EDTA; and 250 mM sucrose]. The cells are lysed and homogenized. The microsomes (vesiculated endoplasmic reticulum) are collected by centrifugation at 105,000 g as a pellet.
NMT is a membrane enzyme. To solubilize this enzyme, this suspension is then diluted to 2/3 in a solubilization buffer [50 mM HEPES, pH 7.5, 1 mM EDTA, 1 mM DTT, 10% glycerol and 3% Triton 770] and maintained for 30 min at 4° C. with stirring. This suspension is then centrifuged again at 105,000 g for 75 min. The material insoluble in the detergent sediments as a pellet. The supernatant comprises the whole of the NMT activity present in the L 1210 microsomes.
The compounds are then tested on the supernatant in competition with the peptide substrate Gly-Asn-(Ala)4 -(Arg)2 ("G8R") according to the conditions which follow, as described by TOWLER et al. (PNAS, (1987), 84, 2708-2711). Myristoylcoenzyme A is synthesized enzymatically immediately before use by incubation of myristate with ATP, Coenzyme A (lithium salt) and Pseudomonas Acyl-Coa synthetase (20 min at 30° C.). The peptide substrate and the biological source as obtained above are then added. The mixture is incubated for 10 min at 37° C.; the reaction is then stopped with 110 μl of methanol and 10 μl of trichloroacetic acid. The medium is left at 4° C. for 10 min and then centrifuged at 10,000 g for 5 min. An aliquot (30 μl) of the final supernatant is injected into an HPLC system equipped with a μBondapak column (Waters) and developed with a linear gradient as described by Towler et al. (PNAS, (1987), 84, 2708-11). Detection of the acylated peptide is performed using a radioactive line detector (Berthold) by means of the addition of 5 ml/min of scintillation fluid (Zinsser). The acylated peptide is eluted at 85% acetonitrile-TFA/15% H20-TFA.
The compounds tested as inhibitors are suspended in a 0.1% solution of Triton 770 after a brief sonication in the cold state. 10 μl of the solution of inhibitor are added to the reaction medium. The experimental conditions are identical to those described above. The activity of the compound is evaluated on the basis of the decrease in control activity, incubated under the same conditions but in the presence of the solution of suspension.

[2] = compared with N-myristoylglycine

SMILES | IC50 (L 1210 cells) [µM] | IC50 (HL 60 cells) [µM] | IC50 [1] [µM] | cytotoxicity on L 1210 cells (in words) (L 1210 cells; [2]) | cytotoxicity on HL 60 cells (in words) (HL 60 cells; [2]) | inhibition of NMT activity (in words) ([1]; enzyme extracted from L 1210 cells) | activity greater than that measured for N-myristoylglycine ([1]; ratio of IC50 versus N-myristoylglycine)
CCCCCCCCCCCCCC(=O)NCC(=O)O [N-myristoylglycine, reference compound] | 48.4 | 20.5 | 3000 | – | – | – | –
CCCCCCCCCCCCCC(=O)N[C@@H](Cc1ccccc1)C(=O)O [N-myristoyl-(S)-phenylalanine] | 29.5 | 12.8 | 200 | markedly greater than that due to N-myristoylglycine; also recorded: markedly greater cytotoxicity than N-myristoylglycine | markedly greater than that due to N-myristoylglycine; also recorded: markedly greater cytotoxicity than N-myristoylglycine | strongly inhibits its activity; also recorded: markedly greater inhibition of the activity of this enzyme than the use of compounds described in the prior art | 15 -fold
